Test results taken from patent US20240294478A1, “ANTI-CANCER COMPOUNDS AND METHODS OF USE” (YALE UNIVERSITY, priority 2021, published 2024).

Columns and labels:
[1] = test system: isogenic mouse embryonic fibroblasts (MEFs) proficient or deficient in XPA; test: Short-term cell viability, XPA proficient or deficient MEFs; format: cell-based; conditions: with or without O6BG-induced MGMT depletion
Experimental: (§1) Columns, mean; error bars, SD; n=2 independent analyses. For (A) and (C), points, mean; error bars, SD; n=3 technical replicates.
The potential for alternative mechanisms of action for KL-50 were probed implicating nucleotide excision repair (NER), base excision repair (BER), reactive oxygen species (ROS), and DNA duplex destabilization.
(§2) Short-term Cell Viability Assay. Cells were seeded in 96-well plates at 1000 or 2000 cells/well and allowed to adhere at 23° C. for 60 min and then incubated overnight at 37° C. Cells were treated with indicated concentrations of compounds in triplicate for 4-6 days prior to fixation with 3.7% paraformaldehyde and nuclear staining with 1 μg/mL Hoechst 33342 dye. Cells were imaged on a Cytation 3 imaging reader (BioTek) and quantified using CellProfiler software. For in vitro short-term growth delay experiments, IC50 values were determined from the nonlinear regression equation, [inhibitor] vs normalized response with variable slope.

[2] = test system: LN229 MGMT+/−, MMR+/− isogenic lines; test: Short-term cell viability with ROS scavenger NAC; format: cell-based, human; conditions: increasing concentrations of NAC
Experimental: as §1, §2

[3] = test system: linearized pUC19 plasmid DNA; test: Melting temperature assay; format: biochemical; conditions: 100 or 500 μM for 3 h
Experimental: as §1
Melting Temperature Assay. Linearized pUC19 DNA (750 ng), prepared as described above, was incubated with the indicated concentration of either MMS or KL-50 adjusted in a final volume of 18 μL in 100 mM Tris buffer (pH 7.4) for 3 h. Drug stock concentrations were made in DMSO such that each reaction contained a fixed 5% DMSO concentration. Afterwards, 1 μL each of 20×SYBR Green dye (Invitrogen) and 20×ROX reference dye (Invitrogen) was added and melting temperature analysis was run on a StepOnePlus RT PCR System (Applied Biosciences) to generate melting temperature curves.

[4] = test system: PD20 cells, deficient in FANCD2 (FANCD2−/−) or complemented with FANCD2; test: Short-term viability assay, PD20 cells; format: cell-based, human; conditions: PD20 FANCD2−/− vs +FANCD2
Experimental: FIGS. 8A-8K. (FIG. 8A) Change in percent cells with 1 micronuclei from baseline (DMSO control) after treatment as in FIGS. 5A and 5C. […] (FIG. 8B) Short-term viability assay curves for KL-50 in PD20 cells, deficient in FANCD2 (FANCD2−/−) or complemented with FANCD2 (+FANCD2). (FIG. 8C) Short-term viability assay curves for KL-50 in PEO4 (BRCA2+) and PEO1 (BRCA2−/−) cells pre-treated with 0.01% DMSO control or 10 μM O^6BG (+O^6BG) for 1 h prior to KL-50 addition. (FIG. 8D) Short-term viability assay curves for KL-50 in DLD1 BRCA2+/− and BRCA2−/−cells pre-treated with 0.01% DMSO control or 10 μM O^6BG (+O^6BG) for 1 h prior to KL-50 addition. For FIGS. 8B-8D, points, mean; error bars, SD; n=3 technical replicates. […] Change in percent cells with 1 micronuclei from baseline (DMSO control) after treatment with olaparib (10 μM) for 48 h in LN229 MGMT+/−, MMR+/−cells. […] Western blot analysis of FANCD2 ubiquitination in LN229 MGMT+/−, MMR+/−cells and PD20 FANCD2-deficient cells, complemented with empty vector (FANCD2+EV), wildtype FANCD2 (PD20+FD2) or ubiquitination-mutant FANCD2 (PD20+KR). The % FANCD2 ubiquitination (% FANCD2 Ub) is quantified as the background-corrected integrated band intensity of the upper band divided by the sum of the background-corrected integrated band intensities of the upper and lower bands. The fold change in % FANCD2 ubiquitination is presented for each cell line relative to DMSO-treated cells. Vinculin serves as loading control. For 8J-8K, points, mean; error bars, SD; n=3 technical replicates.
as §2, with “Cells were treated with indicated concentrations of compounds in triplicate for 4-6 days prior to fixation with 3.7% paraformaldehyde and nuclear staining with 1 μg/mL Hoechst 33342 dye.” left out

[5] = test system: PEO4 (BRCA2+) and PEO1 (BRCA2−/−) cells; test: Short-term viability assay, PEO1/PEO4 model +/- O6BG; format: cell-based, human; conditions: PE01/4 model
Experimental: FIGS. 8A-8K. (FIG. 8A) Change in percent cells with 1 micronuclei from baseline (DMSO control) after treatment as in FIGS. 5A and 5C. […] (FIG. 8B) Short-term viability assay curves for KL-50 in PD20 cells, deficient in FANCD2 (FANCD2−/−) or complemented with FANCD2 (+FANCD2). (FIG. 8C) Short-term viability assay curves for KL-50 in PEO4 (BRCA2+) and PEO1 (BRCA2−/−) cells pre-treated with 0.01% DMSO control or 10 μM O^6BG (+O^6BG) for 1 h prior to KL-50 addition. (FIG. 8D) Short-term viability assay curves for KL-50 in DLD1 BRCA2+/− and BRCA2−/−cells pre-treated with 0.01% DMSO control or 10 μM O^6BG (+O^6BG) for 1 h prior to KL-50 addition. For FIGS. 8B-8D, points, mean; error bars, SD; n=3 technical replicates. […] The % FANCD2 ubiquitination (% FANCD2 Ub) is quantified as the background-corrected integrated band intensity of the upper band divided by the sum of the background-corrected integrated band intensities of the upper and lower bands. […]
Short-term Cell Viability Assay. […] Cells were imaged on a Cytation 3 imaging reader (BioTek) and quantified using CellProfiler software. For in vitro short-term growth delay experiments, IC50 values were determined from the nonlinear regression equation, [inhibitor] vs normalized response with variable slope.

[6] = Maximum tolerated dose study in healthy mice; format: in vivo
Excerpt: FIGS. 10A-10G. KL-50 is efficacious in an LN229 MGMT−/MMR− intracranial model and is well tolerated with limited myelosuppression at supratherapeutic doses. […] (FIG. 10B) Mean body change with SEM of mice during maximum tolerated dose experiment in non-tumor bearing mice. (FIGS. 10C-10G) Complete blood counts for mice pre-treatment and 7 days post-treatment with escalations of single dose KL-50 delivered PO. WBC lower limit of normal (LLN): 2.2 K/L; Neutrophils LLN: 0.42 K/L; Lymphocyte LLN: 1.7 K/L; RBC LLN: 3.47 M/L; Platelet LLN: 155 K/L. *, P<0.05; ****, P<0.0001.
Healthy mice were treated with escalating doses of KL-50 (0, 25, 50, 100, and 200 mg/kg x 1 dose), and monitored over time for changes in both weights and hematologic profiles. […]. […]

## NC(=O)c1ncn2c(=O)n(CCF)nnc12 [KL-50]
[1]
  sensitivity of XPA-deficient vs proficient MEFs: no differential sensitivity
[2]
  rescue of toxicity by ROS scavenger NAC: did not result in rescue of KL-50 toxicity
[3]
  change in DNA melting temperature: comparable changes in measured DNA melting temperature
[4]
  sensitivity of FANCD2-deficient cells: hypersensitive
[5]
  therapeutic index (TI): 62 fold
[6]; 200 mg/kg x 1 dose
  mice observably ill warranting euthanasia: Two of three mice
[6]; 25, 50, 100 mg/kg x 1 dose
  toxicity in remaining cohorts: no evidence of toxicity
[6]; all cohorts, 0-200 mg/kg single dose PO
  complete blood counts day 7: within normal physiological ranges
[6]; escalating single doses
  tolerability, overall: well-tolerated
[6]; single dose 100 or 200 mg/kg, regressed to baseline at the end of one week
  weight loss after treatment administration: greater than 10%
